Patent US7741495B2, “Indoline-sulfonamides compounds” (Taipei Medical University, priority 2006, dated 2010)
Structures can show the parent of a compound that is named as a salt.

melting point [°C]	SMILES
205 to 206	COc1ccc(S(=O)(=O)N2CCc3cccc(NC(=O)c4ccccc4)c32)cc1 [compound 20, N-[1-(4-Methoxy-benzenesulfonyl)-2,3-dihydro-1H-indol-7-yl]-benzamide]
163 to 164	COc1ccc(S(=O)(=O)N2CCc3cccc(NC(=O)c4ccco4)c32)cc1 [compound 27, Furan-2-carboxylic acid [1-(4-methoxy-benzenesulfonyl)-2,3-dihydro-1H-indol-7-yl]-amide]
154 to 155	COc1ccc(S(=O)(=O)N2CCc3cccc(NC(C)=O)c32)cc1 [compound 35, N-[1-(4-Methoxy-benzenesulfonyl)-2,3-dihydro-1H-indol-7-yl]acetamide]
151 to 152	COc1ccc(S(=O)(=O)N2CCc3cccc(NC(=O)c4ccc([N+](=O)[O-])cc4)c32)cc1 [compound 22, N-[1-(4-Methoxy-benzenesulfonyl)-2,3-dihydro-1H-indol-7-yl]-4-nitro-benzamide]
104 to 105	COc1ccc(S(=O)(=O)N2CCc3cccc(NS(=O)(=O)c4ccc(F)cc4)c32)cc1 [compound 31, 4-Fluoro-N-[1-(4-methoxy-benzenesulfonyl)-2,3-dihydro-1H-indol-7-yl]-benzenesulfonamide]
188 to 189	COc1ccc(S(=O)(=O)N2CCc3cccc(NC(=O)c4cccs4)c32)cc1 [compound 28, Thiophene-2-carboxylic acid [1-(4-methoxy-benzenesulfonyl)-2,3-dihydro-1H-indol-7-yl]-amide]
170 to 171	COc1ccc(S(=O)(=O)N2CCc3cc(Br)cc(NC(=O)c4ccco4)c32)cc1 [compound 38, Furan-2-carboxylic acid [5-bromo-1-(4-methoxy-benzenesulfonyl) -2,3-dihydro-1H-indol-7-yl]-amide]
143 to 145	COc1ccc(S(=O)(=O)N2CCc3cccc(NS(=O)(=O)c4ccccc4)c32)cc1 [compound 29, N-[1-(4-Methoxy-benzenesulfonyl)-2,3-dihydro-1H-indol-7-yl]-benzenesulfonamide]
162 to 163	COc1ccc(S(=O)(=O)N2CCc3cccc(NCc4ccccc4)c32)cc1 [compound 34, Benzyl-[1-(4-methoxy-benzenesulfonyl)-2,3-dihydro-1H-indol-7-yl]-amine]
184 to 185	COc1ccc(S(=O)(=O)N2CCc3cccc(NC(=O)c4ccc(F)cc4)c32)cc1 [compound 21, 4-Fluoro-N-[1-(4-methoxy-benzenesulfonyl)-2,3-dihydro-1H-indol-7-yl]-benzamide]
199 to 201	COc1ccc(S(=O)(=O)N2CCc3cccc(NC(=O)N(C)c4ccccc4)c32)cc1 [compound 33, 3-[1-(4-Methoxy-benzenesulfonyl)-2,3-dihydro-1H-indol-7-yl]-1-methyl-1-phenyl-urea]
191 to 192	COc1ccc(S(=O)(=O)N2CCc3cc(Br)cc(NC(=O)c4ccncc4)c32)cc1 [compound 37, N-[5-Bromo-1-(4-methoxy-benzenesulfonyl)-2,3-dihydro-1H-indol-7-yl]-isonicotinamide]
219 to 220	COc1ccc(S(=O)(=O)N2CCc3cccc(NC(=O)c4ccncc4)c32)cc1 (as salt: HCl) [compound 26, N-[1-(4-Methoxy-benzenesulfonyl)-2,3-dihydro-1H-indol-7-yl]-isonicotin amide]
179 to 180	COc1ccc(S(=O)(=O)N2CCc3cccc(NC(=O)c4ccc(C#N)cc4)c32)cc1 [compound 23, 4-Cyano-N-[1-(4-methoxy-benzenesulfonyl)-2,3-dihydro-1H-indol-7-yl]-benzamide]
164 to 166	COc1ccc(S(=O)(=O)N2CCc3cccc(NC(=O)Oc4ccccc4)c32)cc1
